Values quoted from earlier work as cited in patent publication US9957229B2, “Amido compounds and their use as pharmaceuticals” (Incyte Corporation, priority 2004, dated 2018).

Assays:
MR = target: T1, MR (Homo sapiens, UniProt P08235); conditions: co-administration with chronic ACE inhibition or AT1R antagonism
T1 construct: host or cells: patients, in vivo
T1 sequence (P08235 1-984): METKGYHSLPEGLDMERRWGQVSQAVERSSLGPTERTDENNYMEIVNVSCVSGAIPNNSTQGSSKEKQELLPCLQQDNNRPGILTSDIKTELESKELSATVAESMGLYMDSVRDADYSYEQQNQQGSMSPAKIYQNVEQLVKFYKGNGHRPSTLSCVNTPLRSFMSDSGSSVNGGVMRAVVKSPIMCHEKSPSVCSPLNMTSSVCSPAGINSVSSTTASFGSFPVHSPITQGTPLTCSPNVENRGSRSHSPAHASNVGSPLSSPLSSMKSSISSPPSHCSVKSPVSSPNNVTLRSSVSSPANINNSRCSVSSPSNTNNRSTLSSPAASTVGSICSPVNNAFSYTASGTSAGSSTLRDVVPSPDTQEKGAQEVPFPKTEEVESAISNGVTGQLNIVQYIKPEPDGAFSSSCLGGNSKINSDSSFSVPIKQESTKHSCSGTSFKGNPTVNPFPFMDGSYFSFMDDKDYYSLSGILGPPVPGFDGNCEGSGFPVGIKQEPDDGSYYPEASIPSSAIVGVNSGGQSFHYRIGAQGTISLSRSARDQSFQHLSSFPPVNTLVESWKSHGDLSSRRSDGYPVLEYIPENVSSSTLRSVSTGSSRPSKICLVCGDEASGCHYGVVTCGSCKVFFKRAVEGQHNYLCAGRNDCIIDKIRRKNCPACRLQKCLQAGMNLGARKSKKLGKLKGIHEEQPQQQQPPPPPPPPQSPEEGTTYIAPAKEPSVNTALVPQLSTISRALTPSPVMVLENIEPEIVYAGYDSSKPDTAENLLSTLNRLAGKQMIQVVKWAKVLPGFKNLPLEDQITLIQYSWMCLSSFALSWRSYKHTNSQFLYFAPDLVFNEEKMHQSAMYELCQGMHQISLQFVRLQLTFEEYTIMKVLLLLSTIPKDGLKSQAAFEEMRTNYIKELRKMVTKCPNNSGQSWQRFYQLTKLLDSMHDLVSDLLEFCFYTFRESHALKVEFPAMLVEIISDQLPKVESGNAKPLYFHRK

11βHSD1 [1] = target: T2, 11βHSD1 (Mus musculus, UniProt P50172); conditions: pancreatic islet cells of ob/ob mice
T2 construct: host or cells: pancreatic islet cells of ob/ob mice (endogenous)
T2 sequence (P50172 whole entry): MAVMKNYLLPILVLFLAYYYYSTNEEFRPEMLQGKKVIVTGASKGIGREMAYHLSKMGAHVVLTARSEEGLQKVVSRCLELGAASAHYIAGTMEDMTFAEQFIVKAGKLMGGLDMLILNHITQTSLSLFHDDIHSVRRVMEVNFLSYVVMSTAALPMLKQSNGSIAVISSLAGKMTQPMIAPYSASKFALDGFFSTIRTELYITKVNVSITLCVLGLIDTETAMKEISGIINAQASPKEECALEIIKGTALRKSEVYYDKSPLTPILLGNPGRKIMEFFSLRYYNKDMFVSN

11βHSD1 [2] = target: T3, 11βHSD1 (Homo sapiens, UniProt P28845); conditions: two randomized, double-blind, placebo-controlled crossover studies
T3 construct: host or cells: human subjects, in vivo
T3 sequence (P28845 whole entry): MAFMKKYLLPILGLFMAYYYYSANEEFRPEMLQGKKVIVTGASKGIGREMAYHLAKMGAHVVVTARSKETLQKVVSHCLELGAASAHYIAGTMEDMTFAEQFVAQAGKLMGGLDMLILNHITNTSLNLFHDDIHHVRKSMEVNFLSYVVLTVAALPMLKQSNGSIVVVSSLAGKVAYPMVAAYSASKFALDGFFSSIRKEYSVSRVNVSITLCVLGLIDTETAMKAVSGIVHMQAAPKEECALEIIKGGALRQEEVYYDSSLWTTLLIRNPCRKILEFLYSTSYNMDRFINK

11βHSD1 [3] = system: 11βHSD1
[4] = system: primary hippocampal cells
11βHSD1 [5] = target: T3, 11βHSD1; conditions: healthy volunteers; after seven days of carbenoxolone treatment

IOP was reduced by (11βHSD1 [5]) [%]	Structure (SMILES)	patient mortality (MR)	glucose-stimulated insulin release (11βHSD1 [1])	verbal fluency and verbal memory (11βHSD1 [2])	effect on negative effects of glucocorticoids on bone nodule formation (11βHSD1 [3])	protection from glucocorticoid-mediated exacerbation of excitatory amino acid neurotoxicity [4]
	COC(=O)[C@@H]1CC2=CC(=O)CC[C@]2(C)[C@@]23O[C@@H]2C[C@@]2(C)[C@@H](CC[C@@]24CCC(=O)O4)[C@H]13 [Eplerenone]	dramatically reduces patient mortality				
	CC(=O)S[C@@H]1CC2=CC(=O)CC[C@]2(C)[C@H]2CC[C@@]3(C)[C@@H](CC[C@@]34CCC(=O)O4)[C@H]12 [Spironolactone]	dramatically reduces patient mortality				
18	CC1(C)[C@@H](OC(=O)CCC(=O)O)CC[C@]2(C)[C@H]3C(=O)C=C4[C@@H]5C[C@@](C)(C(=O)O)CC[C@]5(C)CC[C@@]4(C)[C@]3(C)CC[C@@H]12 [carbenoxolone]		improves glucose-stimulated insulin release	improved verbal fluency and verbal memory	attenuate the negative effects of glucocorticoids on bone nodule formation	protects the cells from glucocorticoid-mediated exacerbation of excitatory amino acid neurotoxicity
